Source: patent publication US20230085307A1, “PYRIDAZINONE COMPOUND AND HERBICIDE” (NISSAN CHEMICAL CORPORATION, priority 2019, published 2023)

What was measured:
[1] = system: wild oat; test: Test Example 4: herbicidal effect by soil treatment (Table 19, symbol I); assay type: in vivo, wild oat (Avena fatua); conditions: amount of applied herbicide 320 g/ha
Outline: (§1)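 Scoring uses the grading scale of an earlier test, three weeks post-application. Treatment consists of spraying a diluted emulsion formulation across the surface of sterilized diluvial soil in which seeds are buried near 1.5 cm deep; boxes are kept in a greenhouse between 25° C. and 30° C.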

[2] = system: lambsquarters; test: Test Example 4: herbicidal effect by soil treatment (Table 19, symbol O); assay type: in vivo, lambsquarters (Chenopodium album); conditions: amount of applied herbicide 320 g/ha
Outline: as §1

[3] = system: velvetleaf; test: Test Example 5: herbicidal effect by foliage application, plastic box (Table 20, symbol M); assay type: in vivo, velvetleaf (Abutilon theophrasti); conditions: foliage application, evaluated three weeks after application
Outline: (§2)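 Post-emergence foliar test in sterilized diluvial soil. Compound applied as water-diluted emulsion at a predetermined rate to 14-day-old plants; evaluation at three weeks.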

[4] = system: false cleavers; test: Test Example 4: herbicidal effect by soil treatment (Table 19, symbol Q); assay type: in vivo, false cleavers (Galium spurium); conditions: amount of applied herbicide 320 g/ha
Outline: as §1

[5] = system: lambsquarters; test: Test Example 5: herbicidal effect by foliage application, plastic box (Table 20, symbol O); assay type: in vivo, lambsquarters (Chenopodium album); conditions: foliage application, evaluated three weeks after application
Outline: as §2

[6] = system: windgrass; test: Test Example 5: herbicidal effect by foliage application, plastic box (Table 20, symbol L); assay type: in vivo, windgrass (Apera spica-venti); conditions: foliage application, evaluated three weeks after application
Outline: as §2

[7] = system: redroot pigweed; test: Test Example 4: herbicidal effect by soil treatment (Table 19, symbol N); assay type: in vivo, redroot pigweed (Amaranthus retroflexus); conditions: amount of applied herbicide 320 g/ha
Outline: as §1

[8] = system: persian speedwell; test: Test Example 4: herbicidal effect by soil treatment (Table 19, symbol R); assay type: in vivo, Persian speedwell (Veronica persica); conditions: amount of applied herbicide 320 g/ha
Outline: as §1

[9] = system: southern crabgrass; test: Test Example 4: herbicidal effect by soil treatment (Table 19, symbol F); assay type: in vivo, southern crabgrass (Digitaria ciliaris); conditions: amount of applied herbicide 320 g/ha
Outline: as §1

[10] = system: chickweed; test: Test Example 5: herbicidal effect by foliage application, plastic box (Table 20, symbol P); assay type: in vivo, common chickweed (Stellaria media); conditions: foliage application, evaluated three weeks after application
Outline: as §2

[11] = system: Italian ryegrass; test: Test Example 4: herbicidal effect by soil treatment (Table 19, symbol K); assay type: in vivo, Italian ryegrass (Lolium multiflorum); conditions: amount of applied herbicide 320 g/ha
Outline: as §1

[12] = system: southern crabgrass; test: Test Example 5: herbicidal effect by foliage application, plastic box (Table 20, symbol F); assay type: in vivo, southern crabgrass (Digitaria ciliaris); conditions: foliage application, evaluated three weeks after application
Outline: as §2

[13] = system: green foxtail; test: Test Example 5: herbicidal effect by foliage application, plastic box (Table 20, symbol G); assay type: in vivo, green foxtail (Setaria viridis); conditions: foliage application, evaluated three weeks after application
Outline: as §2

[14] = system: blackgrass; test: Test Example 4: herbicidal effect by soil treatment (Table 19, symbol J); assay type: in vivo, blackgrass (Alopecurus myosuroides); conditions: amount of applied herbicide 320 g/ha
Outline: as §1

[15] = system: Italian ryegrass; test: Test Example 5: herbicidal effect by foliage application, plastic box (Table 20, symbol K); assay type: in vivo, Italian ryegrass (Lolium multiflorum); conditions: foliage application, evaluated three weeks after application
Outline: as §2

[16] = system: velvetleaf; test: Test Example 4: herbicidal effect by soil treatment (Table 19, symbol M); assay type: in vivo, velvetleaf (Abutilon theophrasti); conditions: amount of applied herbicide 320 g/ha
Outline: as §1

[17] = system: persian speedwell; test: Test Example 5: herbicidal effect by foliage application, plastic box (Table 20, symbol R); assay type: in vivo, Persian speedwell (Veronica persica); conditions: foliage application, evaluated three weeks after application
Outline: as §2

[18] = system: Chinese sprangletop; test: Test Example 3: herbicidal effect by foliage application, Wagner pot (Table 18, symbol D); assay type: in vivo, chinese sprangletop (Leptochloa chinensis); conditions: amount of applied herbicide 320 g/ha
Outline: (§3)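 Plants were sown in alluvial soil held under 0.1–0.5 cm standing water and grown 14 days in a greenhouse at 25–30 °C. An emulsifiable formulation, water-diluted to the set dose, was then sprayed onto the foliage, and effects were scored three weeks later using previously defined criteria.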

[19] = system: wild oat; test: Test Example 5: herbicidal effect by foliage application, plastic box (Table 20, symbol I); assay type: in vivo, wild oat (Avena fatua); conditions: foliage application, evaluated three weeks after application
Outline: as §2

[20] = system: green foxtail; test: Test Example 4: herbicidal effect by soil treatment (Table 19, symbol G); assay type: in vivo, green foxtail (Setaria viridis); conditions: amount of applied herbicide 320 g/ha
Outline: as §1

[21] = system: barnyard grass; test: Test Example 5: herbicidal effect by foliage application, plastic box (Table 20, symbol H); assay type: in vivo, barnyard grass (Echinochloa crus-galli); conditions: foliage application, evaluated three weeks after application
Outline: as §2

[22] = system: windgrass; test: Test Example 4: herbicidal effect by soil treatment (Table 19, symbol L); assay type: in vivo, windgrass (Apera spica-venti); conditions: amount of applied herbicide 320 g/ha
Outline: as §1

[23] = system: barnyard grass; test: Test Example 4: herbicidal effect by soil treatment (Table 19, symbol H); assay type: in vivo, barnyard grass (Echinochloa crus-galli); conditions: amount of applied herbicide 320 g/ha
Outline: as §1

[24] = system: chickweed; test: Test Example 4: herbicidal effect by soil treatment (Table 19, symbol P); assay type: in vivo, common chickweed (Stellaria media); conditions: amount of applied herbicide 320 g/ha
Outline: as §1

[25] = system: blackgrass; test: Test Example 5: herbicidal effect by foliage application, plastic box (Table 20, symbol J); assay type: in vivo, blackgrass (Alopecurus myosuroides); conditions: foliage application, evaluated three weeks after application
Outline: as §2

[26] = system: redroot pigweed; test: Test Example 5: herbicidal effect by foliage application, plastic box (Table 20, symbol N); assay type: in vivo, redroot pigweed (Amaranthus retroflexus); conditions: foliage application, evaluated three weeks after application
Outline: as §2

[27] = system: barnyard grass; test: Test Example 3: herbicidal effect by foliage application, Wagner pot (Table 18, symbol H); assay type: in vivo, barnyard grass (Echinochloa crus-galli); conditions: amount of applied herbicide 320 g/ha
Outline: as §3

[28] = system: rice flat sedge; test: Test Example 3: herbicidal effect by foliage application, Wagner pot (Table 18, symbol E); assay type: in vivo, rice flat sedge (Cyperus iria); conditions: amount of applied herbicide 320 g/ha
Outline: as §3

## COc1cc(F)ccc1-c1sc2ccc(C(C)=NOC(C)C)cc2c1-c1c(O)c(C)nn(C)c1=O [2-195]
[1]
  I: wild oat, herbicidal effect rating: 0 (Herbicidal rate of 5% or less (almost no effect))
[2]
  O: lambsquarters, herbicidal effect rating: 3 (Herbicidal rate of 40% or more and less than 70%)
[3]; 320 g/ha
  herbicidal effect on M: velvetleaf (criteria 0-5): 2 (Herbicidal rate of 20% or more and less than 40%)
[4]
  Q: false cleavers, herbicidal effect rating: 0 (Herbicidal rate of 5% or less (almost no effect))
[5]; 320 g/ha
  herbicidal effect on O: lambsquarters (criteria 0-5): 4 (Herbicidal rate of 70% or more and less than 90%)
[6]; 320 g/ha
  herbicidal effect on L: windgrass (criteria 0-5): 0 (Herbicidal rate of 5% or less (almost no effect))
[7]
  N: redroot pigweed, herbicidal effect rating: 3 (Herbicidal rate of 40% or more and less than 70%)
[8]
  R: persian speedwell, herbicidal effect rating: 4 (Herbicidal rate of 70% or more and less than 90%)
[9]
  F: southern crabgrass, herbicidal effect rating: 0 (Herbicidal rate of 5% or less (almost no effect))
[10]; 320 g/ha
  herbicidal effect on P: chickweed (criteria 0-5): 5 (Herbicidal rate of 90% or more (almost completely withered))
[11]
  K: Italian ryegrass, herbicidal effect rating: 0 (Herbicidal rate of 5% or less (almost no effect))
[12]; 320 g/ha
  herbicidal effect on F: southern crabgrass (criteria 0-5): 2 (Herbicidal rate of 20% or more and less than 40%)
[13]; 320 g/ha
  herbicidal effect on G: green foxtail (criteria 0-5): 0 (Herbicidal rate of 5% or less (almost no effect))
[14]
  J: blackgrass, herbicidal effect rating: 0 (Herbicidal rate of 5% or less (almost no effect))
[15]; 320 g/ha
  herbicidal effect on K: Italian ryegrass (criteria 0-5): 0 (Herbicidal rate of 5% or less (almost no effect))
[16]
  M: velvetleaf, herbicidal effect rating: 0 (Herbicidal rate of 5% or less (almost no effect))
[17]; 320 g/ha
  herbicidal effect on R: persian speedwell (criteria 0-5): 5 (Herbicidal rate of 90% or more (almost completely withered))
[18]
  herbicidal effect on D: Chinese sprangletop: 0 (Herbicidal rate of 5% or less (almost no effect))
[19]; 320 g/ha
  herbicidal effect on I: wild oat (criteria 0-5): 0 (Herbicidal rate of 5% or less (almost no effect))
[20]
  G: green foxtail, herbicidal effect rating: 0 (Herbicidal rate of 5% or less (almost no effect))
[21]; 320 g/ha
  herbicidal effect on H: barnyard grass (criteria 0-5): 2 (Herbicidal rate of 20% or more and less than 40%)
[22]
  L: windgrass, herbicidal effect rating: 0 (Herbicidal rate of 5% or less (almost no effect))
[23]
  H: barnyard grass, herbicidal effect rating: 0 (Herbicidal rate of 5% or less (almost no effect))
[24]
  P: chickweed, herbicidal effect rating: 0 (Herbicidal rate of 5% or less (almost no effect))
[25]; 320 g/ha
  herbicidal effect on J: blackgrass (criteria 0-5): 4 (Herbicidal rate of 70% or more and less than 90%)
[26]; 320 g/ha
  herbicidal effect on N: redroot pigweed (criteria 0-5): 3 (Herbicidal rate of 40% or more and less than 70%)
[27]
  herbicidal effect on H: barnyard grass: 3 (Herbicidal rate of 40% or more and less than 70%)
[28]
  herbicidal effect on E: rice flat sedge: 0 (Herbicidal rate of 5% or less (almost no effect))

## Cc1nn(C)c(=O)c(-c2c(-c3ccc(OC(F)F)cc3)sc3ccc(F)cc23)c1OC(=O)N1CCOCC1 [2-290]
[1]
  herbicidal effect on I: wild oat: 0 (Herbicidal rate of 5% or less (almost no effect))
[2]
  herbicidal effect on O: lambsquarters: 3 (Herbicidal rate of 40% or more and less than 70%)
[3]; AAH 320 g/ha
  M: velvetleaf, herbicidal effect (criteria 0-5): 4 (Herbicidal rate of 70% or more and less than 90%)
[4]
  herbicidal effect on Q: false cleavers: 0 (Herbicidal rate of 5% or less (almost no effect))
[5]; AAH 320 g/ha
  O: lambsquarters, herbicidal effect (criteria 0-5): 5 (Herbicidal rate of 90% or more (almost completely withered))
[6]; AAH 320 g/ha
  L: windgrass, herbicidal effect (criteria 0-5): 0 (Herbicidal rate of 5% or less (almost no effect))
[7]
  herbicidal effect on N: redroot pigweed: 1 (Herbicidal rate of 5% or more and less than 20%)
[8]
  herbicidal effect on R: persian speedwell: 3 (Herbicidal rate of 40% or more and less than 70%)
[9]
  herbicidal effect on F: southern crabgrass: 0 (Herbicidal rate of 5% or less (almost no effect))
[10]; AAH 320 g/ha
  P: chickweed, herbicidal effect (criteria 0-5): 5 (Herbicidal rate of 90% or more (almost completely withered))
[11]
  herbicidal effect on K: Italian ryegrass: 0 (Herbicidal rate of 5% or less (almost no effect))
[12]; AAH 320 g/ha
  F: southern crabgrass, herbicidal effect (criteria 0-5): 0 (Herbicidal rate of 5% or less (almost no effect))
[13]; AAH 320 g/ha
  G: green foxtail, herbicidal effect (criteria 0-5): 2 (Herbicidal rate of 20% or more and less than 40%)
[14]
  herbicidal effect on J: blackgrass: 0 (Herbicidal rate of 5% or less (almost no effect))
[15]; AAH 320 g/ha
  K: Italian ryegrass, herbicidal effect (criteria 0-5): 0 (Herbicidal rate of 5% or less (almost no effect))
[16]
  herbicidal effect on M: velvetleaf: 0 (Herbicidal rate of 5% or less (almost no effect))
[17]; AAH 320 g/ha
  R: persian speedwell, herbicidal effect (criteria 0-5): 5 (Herbicidal rate of 90% or more (almost completely withered))
[18]
  herbicidal effect on D: Chinese sprangletop: 4 (Herbicidal rate of 70% or more and less than 90%)
[19]; AAH 320 g/ha
  I: wild oat, herbicidal effect (criteria 0-5): 0 (Herbicidal rate of 5% or less (almost no effect))
[20]
  herbicidal effect on G: green foxtail: 0 (Herbicidal rate of 5% or less (almost no effect))
[21]; AAH 320 g/ha
  H: barnyard grass, herbicidal effect (criteria 0-5): 2 (Herbicidal rate of 20% or more and less than 40%)
[22]
  herbicidal effect on L: windgrass: 0 (Herbicidal rate of 5% or less (almost no effect))
[23]
  herbicidal effect on H: barnyard grass: 0 (Herbicidal rate of 5% or less (almost no effect))
[24]
  herbicidal effect on P: chickweed: 0 (Herbicidal rate of 5% or less (almost no effect))
[25]; AAH 320 g/ha
  J: blackgrass, herbicidal effect (criteria 0-5): 0 (Herbicidal rate of 5% or less (almost no effect))
[26]; AAH 320 g/ha
  N: redroot pigweed, herbicidal effect (criteria 0-5): 5 (Herbicidal rate of 90% or more (almost completely withered))
[27]
  herbicidal effect on H: barnyard grass: 4 (Herbicidal rate of 70% or more and less than 90%)
[28]
  herbicidal effect on E: rice flat sedge: 3 (Herbicidal rate of 40% or more and less than 70%)
